In patent US20040006094A1, “4-pyrimidinamine derivatives, pharmaceutical compositions and related methods” (priority 2000, published 2004):
One block for each compound: values may come before it.

Tests used:
CAMKII = conditions: read-out: Potency, Ki, CAMKII; cited from earlier work
[1] = system: differentiated P19 neurons; assay: Differentiated P19 excitotoxicity assay: neuroprotection by known kinase inhibitors against glutamate/glycine (Alamar Blue, CFDA); format: cell-based, murine; conditions: 3 mM glutamate, 1 mM glycine
Protocol: Data points are the average±standard error of three separate experiments.
These cells were used to measure the effects of various known kinase inhibitors (Compound Identification (ID) column in Table I) upon cytotoxicity-induced by NMDA. First, P19 cells were differentiated as described in Example 2. Then cells were exposed to 3 mM of glutamate in the presence of 1 mM glycine.
Cell viability was determined. Compounds that prevented excitotoxicity were determined by measuring the percentage of viable cells compared to differentiated P19 cells that were not presented with a toxic insult (Table I).
Cell viability was measured using two methods. The first method was a confocal, single-cell fluorescence imaging-based method using the live cell dye carboxy-fluorescein diacetate (CFDA). CFDA labels the cell bodies and processes of living cells. […] CFDA fluorescence was measured using a modified Attofluor Imager device (Atto Instruments, Rockville Pike, Md.). Cells were labeled with 1 uM CFDA for 15 min in media, then placed onto the stage of the Attofluor microscope. The dye was excited by light from a mercury lamp source passed through a 488 nm bandpass filter of 10 nm band width, passed through a CARV real-time confocal spinning disk module (Atto Instruments, Rockville, Md.), and then passed through a 40×oil immersion objective (Zeiss Fluar, NA=1.3). Emitted light was transmitted through a 495 nm dichroic mirror, collected to an Attofluor intensified CCD camera, and images were visualized using Attofluor Ratio Vision software (Atto Instruments, Rockville, Md.).
(§1) The second method for measuring cell viability was a plate reader method. Cells plated into black 96 well plates (Packard viewplates) were loaded with 5% Alamar Blue dye (Biosource International). Alamar Blue is a dye that takes advantage of mitochondrial reductases to convert non-fluorescent resazurin to fluorescent resorufin (excitation 535 nm, emission 580 nm). Baseline fluorescence counts were read at room temperature in a Wallac plate reader immediately after addition of Alamar blue. Fluorescence counts of cell viability were taken the same way after 1 hour incubation at 37° C. Fluorescence was expressed as a percent of control, untreated cells after subtraction of background fluorescence. Live/dead cells were confirmed visually with a light microscope.
Kinase inhibition activities and potencies were derived from the literature (Chijiwa et al. 1990; Favata et al. 1998; Henry et al. 1998; Inhorn and Majerus 1987; Kobayashi et al. 1989; Lee et al. 1994; Onoda et al. 1989; Tokumitsu et al. 1990). […] Curves were fit, and confidence intervals were determined using GraphPad Prism software.

[2] = system: differentiated P19 neurons; assay: Drug screening using differentiated P19 cell assay (neuroprotection against 3 mM glutamate and 1 mM glycine); format: cell-based, murine; conditions: dose response 0.005-3 μM, >1 = no observed maximum within highest dose tested (3 μM)
Protocol: Commercially available chemical libraries (BioFocus PLC, UK) were screened using the methods described herein. The stock concentration of the compounds was about 400 μM in DMSO. The concentration of compounds used in the primary screen was 1 μM. […] Columns 4-11 received compounds at the following final concentrations (μM): 3, 1.2, 0.48, 0.192, 0.077, 0.031, 0.012 and 0.005. Each row contained a different compound for confirmation. Only rows B-G received compounds, and rows A and H remained untreated.
Only the 4-pyrimidinamines are the subject of this invention, although limited data for 2-pyridinamines are presented as well. “% Inh” indicates the percentage of control cells surviving after 24 hours, and represents the neuroprotective effect of the compounds screened at 1 micromolar concentration. IC50 relate to data from dose response experiments. […] ND refers to compounds not tested in dose-response experiments.
The representative compounds listed in Tables IX<X, XI and XII were tested according to the procedure described in Example 5 with results as listed in Table XIII. Unless otherwise noted, molecular weights were measure on a Hewlitt-Packard Series 1050 Chemical Ionization mass spectrometer.

Male Wistar rats = assay: Transient model of cerebral ischemia in rats (lesion volume); format: in vivo, rat; conditions: i.v., 1 hr post ischemia onset, 24 h, average of 12
Protocol: Male Wistar rats (Iffa Crédo, France), weighing 250-300 g, were housed 2 per cage under a light-dark cycle of 12 hr-12 hr (light on at 7:00 a.m., off at 7:00 p.m.) at a room temperature of 21±2° C., with 50±15% humidity, for a minimum of 5 days before the experiments. During this time, the rats had free access to commercial rat chow (Trouw Nutrition France, Vigny, France, ref. 811002) and tap water.
The animals were anaesthetized with 5% halothane in air for induction, then 1-2% halothane during surgery. The rat's body temperature was maintained at 37° C. with a heating pad. A 2 cm incision was made at the center of the neck and the right common carotid artery (CCA), external carotid artery (ECA) and internal carotid artery (ICA) were exposed under an operating microscope. The ICA was further dissected to identify the pterygopalatine artery (PA) branch and the intracranial ICA branch. The CCA was ligated. A 3-0 silk suture was tied at the origin of the ECA and ligated. A catheter (id=0.58 mm) was introduced into the CCA through a small puncture and advanced to the intracranial branch of the ICA. A 4-0 surgical nylon suture was introduced into the catheter. A length of approximately 19 mm of nylon suture was gently advanced from the CCA into the lumen of the ICA until the suture blocked the origin of the MCA. The suture was sealed into the catheter by heat, leaving 1 cm of catheter protruding so the suture could be withdrawn to allow reperfusion. The incision was closed using skin clips. Anaesthesia was then terminated and the animals were placed under heat lamps until recovery from anaesthesia. The rats awakened 10-15 min later. After 2 hr of ischemia, reperfusion was performed by withdrawal of the suture until the tip cleared the ICA lumen. Vehicle or test compound was administered intraperitoneally (i.p.) or intravenously (i.v.) at 1 hr post ischemia onset.
24 h after the onset of occlusion, the rats were killed by decapitation. The brains were immediately removed, frozen in isopentane and stored at −20° C. The brains were then cut in 20 μm thick sections in a cryocut. Every 20th slice was used to measure infarct area. The sections were stained with cresyl violet and the areas of infarct in the striatum and cortex were determined by planimetry using an image analysis software (Image, NIH) after digitalization of the section images.
Following the procedure described above, MK-801, compound #46 and compound #264 (as listed in the Tables herein) were evaluated for neuroprotective effects in rats with results as listed in Table VIII. The data represent average lesion volume in mm^3 for 12 measurements. Vehicle used was 15% solutol in 5% dextrose.

P19 neurons = assay: P19 neuron viability / toxicity by Alamar blue fluorescence; format: cell-based, murine
Protocol: Alamar Blue fluorescence, an indicator of cell viability, was used to determine cell viability after an NMDA-induced cytotoxic insult. […] However, since raw fluorescence counts vary from experiment to experiment, FIGS. 2A, 2B, and 2C are expressed as a percent of control.
Glutamate toxicity dose response in the presence of a constant 1 mM glycine concentration was measured in the differentiated P19 neurons. The curve generated through the data points is the average of 6 separate dose response curves. Data points are represented as the percent of control cells±standard error. % control=(([Glutamate]exp−[Glutamate]max)/(Controlvehicle−[Glutamate]max))×100.
as §1
Cells were then assayed for Alamar blue fluorescence. The curve generated through the data points is the average of 3 separate dose response curves. Data points are represented as percent of control cells±standard error.

Compound: CN([C@@H](Cc1ccc(OS(=O)(=O)c2cccc3cnccc23)cc1)C(=O)N1CCN(c2ccccc2)CC1)S(=O)(=O)c1cccc2cnccc12 [KN62]
Ki (CAMKII): ~900 nM
Maximal Efficacy for Neuroprotection [1]: <10%
IC50 for Neuroprotection [lower-upper 95% C.I.] ([1]; mean of three separate curves): Ineffective

IC50 ([2]; Mus musculus, Neuron): 0.49 µM
Compound: CCN(CCO)c1ccc(Nc2cc(-c3ccc(-c4ccccc4)cc3)ncn2)cc1 [Cmpd 47]

IC50 ([2]; Mus musculus, Neuron): 0.23 µM
Compound: CCN(CCO)c1ccc(Nc2cc(-c3ccc(OC(F)(F)F)cc3)ncn2)cc1 [Cmpd 51, ethanol, 2-[ethyl[4-[[6-[4-(trifluoromethoxy)phenyl]-4-pyrimidinyl]amino]phenyl]amino]-]

IC50 [2]: > 1 µM
Compound: CCn1c2ccccc2c2ccc(Nc3cc(-c4ccc(OC)c(OC)c4)ncn3)cc21 [Cmpd 151]

Compound: CCN(CCO)c1ccc(Nc2cc(-c3cc(C(F)(F)F)cc(C(F)(F)F)c3)ncn2)cc1 [Cmpd 48]
IC50 [2]: 0.48 µM

IC50 ([2]; Mus musculus, Neuron): 0.41 µM
Compound: CCN(CCO)c1ccc(Nc2cc(-c3ccc(SC)cc3)ncn2)cc1 [Cmpd 50]

IC50 ([2]; Mus musculus, Neuron): > 1 µM
Compound: CN(C)c1ccc(Nc2cc(-c3ccccc3Oc3ccccc3)ncn2)cc1 [Cmpd 63]

IC50 ([2]; Mus musculus, Neuron): 0.86 µM
Compound: CCN(CCO)c1ccc(Nc2cc(-c3ccsc3)ncn2)cc1 [Cmpd 55]

IC50 ([2]; Mus musculus, Neuron): 0.07 µM
Compound: CCN(CCO)c1ccc(Nc2cc(-c3cccc(-c4ccccc4)c3)ncn2)cc1 [Cmpd 46, ethanol, 2-[[4-[(6-[1,1′-biphenyl]-3-yl-4-pyrimidinyl)amino]phenyl]ethylamino]-]
Cortex + Striatum Vol. (mm^3) (Male Wistar rats; 0.6 mg/kg): 326.6 ± 26.0 mm^3
Cortex Vol. (mm^3) (Male Wistar rats; 0.6 mg/kg): 247.6 ± 24.8 mm^3
Striatum Vol. (mm^3) (Male Wistar rats; 0.6 mg/kg): 79.1 ± 3.0 mm^3
Cortex + Striatum Vol. (mm^3) (Male Wistar rats; 3 mg/kg): 290.8 ± 28.1 mm^3
Cortex Vol. (mm^3) (Male Wistar rats; 3 mg/kg): 214.7 ± 26.6 mm^3
Striatum Vol. (mm^3) (Male Wistar rats; 3 mg/kg): 76.1 ± 2.8 mm^3

Compound: CN(C)c1ccc(Nc2cc(-c3ccc4ccccc4c3)ncn2)cc1 [Cmpd 41]
IC50 [2]: 0.54 µM

IC50 ([2]; Mus musculus, Neuron): 0.54 µM
Compound: CCN(CCO)c1ccc(Nc2cc(C3C=C4C=CC=CC4O3)ncn2)cc1 (stereo not shown) [Cmpd 53]

IC50 ([2]; Mus musculus, Neuron): 0.26 µM
Compound: CN(C)c1ccc(Nc2cc(-c3cc(C(F)(F)F)cc(C(F)(F)F)c3)ncn2)cc1 [Cmpd 44, 1,4-benzenediamine, N^1-[6-[3,5-bis(trifluoromethyl)phenyl]-4-pyrimidinyl]-N^4,N^4-dimethyl-]

IC50 ([2]; Mus musculus, Neuron): 0.33 µM
Compound: CN(C)c1ccc(Nc2cc(-c3ccc(N(C)C)cc3)ncn2)cc1 [Cmpd 149]

IC50 ([2]; Mus musculus, Neuron): > 1 µM
Compound: Oc1ccc(-c2cc(Nc3ccc(N4CCN(c5ccccc5)CC4)cc3)ncn2)cc1 [Cmpd 65]

IC50 ([2]; Mus musculus, Neuron): > 1 µM
Compound: CN(C)c1ccc(Nc2cc(-c3cccc4ccccc34)ncn2)cc1 [Cmpd 61]

Compound: N[C@@H](CCC(=O)O)C(=O)O [Glutamate]
reduction in Alamar blue fluorescence (P19 neurons; 3 mM glutamate and 1 mM glycine for 24 hours): 60%
EC50 (P19 neurons; constant 1 mM glycine, 24 hours, average of 6 curves, read-out: Glutamate toxicity EC50): 8100 nM

IC50 ([2]; Mus musculus, Neuron): 0.55 µM
Compound: CCN(CCO)c1ccc(Nc2cc(-c3cccc([N+](=O)[O-])c3)ncn2)cc1 [Cmpd 49]

IC50 [2]: > 1 µM
Compound: CCn1c2ccccc2c2ccc(Nc3cc(-c4cc(OC)c(OC)c(OC)c4)ncn3)cc21 [Cmpd 152]

IC50 ([2]; Mus musculus, Neuron): > 1 µM
Compound: CN(C)c1ccc(Nc2cc(-c3ccc(C#N)cc3)ncn2)cc1 [Cmpd 62]

IC50 ([2]; Mus musculus, Neuron): 1.09 µM
Compound: CCN(CCO)c1ccc(Nc2cc(-c3ccc(CNC(=O)OC(C)(C)C)cc3)ncn2)cc1 [Cmpd 147]

IC50 ([2]; Mus musculus, Neuron): 0.57 µM
Compound: CCN(CCO)c1ccc(Nc2cc(-c3ccccc3Oc3ccccc3)ncn2)cc1 [Cmpd 56]

Compound: NCC(=O)O [Glycine]
effect on basal P19 neuron viability, substance alone (P19 neurons; no inducer of toxicity (U0126: 10 μM)): did not affect P19 neuron viability

IC50 ([2]; Mus musculus, Neuron): > 1 µM
Compound: CCN(CCO)c1ccc(Nc2cc(-c3ccc(C#N)cc3)ncn2)cc1 [Cmpd 64]

IC50 ([2]; Mus musculus, Neuron): 0.24 µM
Compound: CCN(CCO)c1ccc(Nc2cc(-c3cc4ccccc4s3)ncn2)cc1 [Cmpd 54, ethanol, 2-[[4-[(6-benzo[b]thien-2-yl-4-pyrimidinyl)amino]phenyl]ethylamino]-]

IC50 ([2]; Mus musculus, Neuron): 0.22 µM
Compound: CN(C)c1ccc(Nc2cc(-c3cccc(-c4ccccc4)c3)ncn2)cc1 [Cmpd 43, 1,4-benzenediamine, N^1-(6-[1,1′-biphenyl]-3-yl-4-pyrimidinyl)-N^4,N^4-dimethyl-]

Compound: O=S(=O)(NCCNC/C=C/c1ccc(Br)cc1)c1cccc2cnccc12 [H-89]
Ki (CAMKII): ~30000 nM
Maximal Efficacy for Neuroprotection [1]: <25%
IC50 ([1]; mean of three separate curves, read-out: IC50 for Neuroprotection [lower-upper 95% C.I.]): > 10000 nM

Compound: CN(C)c1ccc(Nc2cc(-c3cc4ccccc4o3)ncn2)cc1 [Cmpd 59]
IC50 [2]: 0.48 µM

IC50 ([2]; Mus musculus, Neuron): 0.39 µM
Compound: CCN(CCO)c1ccc(Nc2cc(-c3cnc(OCc4ccccc4)nc3OCc3ccccc3)ncn2)cc1 [Cmpd 58, 2-{[4-(2′,4′-is-benzyloxy-[4,5′]bipyrimidinyl-6-ylamino)-phenyl]-ethyl-amino}-ethanol]

IC50 ([2]; Mus musculus, Neuron): 0.47 µM
Compound: CCN(CCO)c1ccc(Nc2cc(-c3cccc(N(C)C)c3)ncn2)cc1 [Cmpd 148]

Compound: CCN(CCO)c1ccc(Nc2cc(-c3ccc4ccccc4c3)ncn2)cc1 [Cmpd 45]
IC50 [2]: 0.57 µM

IC50 [2]: 0.55 µM
Compound: CCn1c2ccccc2c2ccc(Nc3cc(-c4ccc(N5CCN(C)CC5)cc4)ncn3)cc21 [Cmpd 154]

Compound: CN(C)c1ccc(Nc2cc(-c3ccc(OCc4ccccc4)cc3)ncn2)cc1 [Cmpd 42, 1,4-benzenediamine, N^1,N^1-dimethyl-N^4-[6-[4-(phenylmethoxy)phenyl]-4-pyrimidinyl]-]
IC50 [2]: 0.2 µM
